Source: patent publication US8242144B2, “Stilbenes and chalcones for the prevention and treatment of cardiovascular diseases” (Resverlogix Corp., priority 2004, dated 2012)

What was measured:
human ApoA-I promoter [1] = test: ApoA-I promoter induction in Caco-2 intestinal cells (pAI.474-Luc luciferase reporter); type: cell-based; settings: Caco-2 cells, luciferase activity vs untreated/control, average values at 15 μM, 48 hours incubation
Method: Briefly, the promoter region of the gene encoding human ApoA-I was isolated and ligated upstream of the firefly luciferase gene to construct the reporter plasmid pAI.474-Luc. This reporter plasmid and pRSV-β-galactosidase (as a control for transfection efficiency) were co-transfected to Caco-2 cells. The Caco-2 cells were then incubated in a MEM selection media containing 20% fetal calf serum supplemented with G418 (final concentration: 0.5 mg/mL, Gibco) to give established strains that stably express from the reporter gene. […] Cells were starved for 24 hrs in MEM selection media containing 0.5% FBS. Then, a solution of a compound of the invention in DMSO or other appropriate solvent was added to the wells at a final concentration of 0 to 100 μM in MEM selection media containing 0.5% FBS.
Measures of luciferase activity were normalized to lysate protein concentrations, measured using Bradford Reagent (BioRad Protein Assay reagent Cat#500-0006). The luciferase activity of cells treated with various concentrations of test compounds was compared to that of control sample (i.e., solvent without any compound of the present invention added) and untreated samples.

human ApoA-I promoter [2] = test: ApoA-I promoter induction in HepG2 liver cells (pAI.474-Luc luciferase reporter); type: cell-based; settings: luciferase activity vs untreated/control, average values at 15 μM, 48 hours incubation
Method: This study determined whether compounds of the invention have an effect on ApoA-I promoter activity expression in HepG2 cells, a liver cell line. Cells were grown under conditions recommended by the ATCC and summarized by Wong.
The promoter region of the gene encoding human ApoA-I was isolated and ligated upstream the structure gene of firefly luciferase to construct a reporter plasmid (pAI.474-Luc). The reporter plasmid, along with pRSV-β-galactosidase (as a control for transfection efficiency) were co-transfected into HepG2 cells. The cells were then incubated in an MEM selection medium containing 20% fetal calf serum supplemented with G418 (final concentration: 0.5 mg/mL, Gibco) to give established strains that stably express from the reporter gene. The strains were seeded to a 6-well culture plates and incubated for 48 hours at 37° C. under 5% carbon dioxide. Cells were starved for 24 hrs in MEM selection media containing 0.5% FBS. Then, a solution of the compounds of the invention in DMSO (or other appropriate solvent) was added to the wells at a final concentration of 0 to 100 μM in MEM selection media containing 0.5% FBS.
After further incubation for 48 hours, the cells were harvested and lysed using Reporter Lysis Buffer (PROMEGA E3971), and 50 μL of luciferase assay reagent (PROMEGA E4550 Luciferase Reporter 1000 assay system) were added to measure luciferase activity with a luminometer (Fluoroskan Ascent FL from Thermo electron Corporation). Measures of luciferase activity were normalized to lysate protein concentrations, measured using Bradford Reagent (Biorad Protein Assay reagent Cat#500-0006).

[3] = Caco-2 permeability (in vitro Caco-2 intestinal transport model); type: in vitro ADME, human; settings: human, Caco-2
Text: (§1) The Caco-2 cell drug transport model is widely used for screening compounds in drug discovery to assess intestinal transport and predict absorption rates. […] Sun et al., “In vitro testing of drug absorption for drug ‘developability’ assessment: forming an interface between in vitro preclinical data and clinical outcome,” Curr. Opin. Drug Discov. Devel.

Caco-2 cells = test: as above; type: in vitro ADME, human; settings: in vitro Caco-2 intestinal transport model
Text: as §1

human ApoA-I promoter [4] = settings: Caco-2 cells, reported by Wong; cited from earlier work

Row | SMILES | ApoA-I Promoter Induction (human ApoA-I promoter [1]) | melting point [°C] | other results
1 | COc1ccc(C(=O)/C=C/c2ccc(O)cc2O)cc1 [2,4-Dihydroxy-4′-methoxy-chalcone] | increased | – | –
2 | O=C(/C=C/c1ccc(O)cc1)c1ccc(O)cc1O [4,2′,4′-Trihydroxy-chalcone] | increased | – | –
3 | Oc1ccc(/C=C/c2ccc(O)cc2)cc1 [4,4′-dihydroxy-stilbene] | increased | – | ApoA-I Promoter Induction (human ApoA-I promoter [2]): increased
4 | O=C(/C=C/c1ccc(O)cc1)c1ccccc1 [4-Hydroxy-chalcone] | increased | – | –
5 | COc1ccc(/C=C/C(=O)c2ccccc2)cc1 [4-Methoxy-chalcone] | increased | – | –
6 | Oc1ccc(/C=C/c2cc(O)cc(O)c2)cc1 [Example 1, Resveratrol] | increased | – | ApoA-I Promoter Induction (human ApoA-I promoter [2]): increased
7 | Oc1ccc(/C=C/c2ccc(O)nc2)cc1 [Example 2, 5-[(E)-2-(4-Hydroxy-phenyl)-vinyl]-pyridin-2-ol] | increased | – | –
8 | COc1cc(O)ccc1/C=C/c1ccc(O)cc1 [Example 3, 4-[(E)-2-(4-Hydroxy-phenyl)-vinyl]-3-methoxy-phenol] | increased | 192 to 194 | ApoA-I Promoter Induction (human ApoA-I promoter [2]): increased
9 | OCc1cc(O)ccc1/C=C/c1ccc(O)cc1 [Example 4, 3-Hydroxymethyl-4-[(E)-2-(4-hydroxy-phenyl)-vinyl]-phenol] | increased | 223 to 225 | Papp [3]: 1.79 ×10⁻⁶ cm/s
10 | O=C(O)c1cc(/C=C/c2ccc(O)cc2)ccc1O [Example 5, 2-Hydroxy-5-[(E)-2-(4-hydroxyphenyl)vinyl]benzoic acid] | no | 241 to 243 | –
11 | O=[N+]([O-])c1cc(O)ccc1/C=C/c1ccc(O)cc1 [Example 6, 3-Nitro-4-[(E)-2-(4-hydroxyphenyl)-vinyl]phenol] | increased | 237 to 240 | Papp [3]: 1.95 ×10⁻⁶ cm/s; ApoA-I Promoter Induction (human ApoA-I promoter [2]): increased
12 | CCOC(=O)c1cc(/C=C/c2ccc(O)cc2)ccc1O [Example 7, (E)-Ethyl 2-hydroxy-5-(4-hydroxystyryl) benzoate] | increased | 269 to 271 | –
13 | NC(=O)c1cc(/C=C/c2ccc(O)cc2)ccc1O [Example 8, (E)-2-Hydroxy-5-(4-hydroxystyryl)benzamide] | increased | 272 to 274 | –
14 | CS(=O)(=O)c1cc(O)ccc1/C=C/c1ccc(O)cc1 [Example 9, 4-[(E)-2-(4-Hydroxyphenyl)vinyl]-3-methanesulfonylphenol] | – | 244 to 245 | –
15 | Nc1cc(O)ccc1/C=C/c1ccc(O)cc1 [Example 10, 3-Amino-4-[(E)-2-(4-hydroxy-phenyl)vinyl]phenol] | increased | 229 to 232 | –
16 | CC(=O)Nc1cc(O)ccc1/C=C/c1ccc(O)cc1 [Example 11, N-{5-Hydroxy-2-[(E)-2-(4-hydroxyphenyl)vinyl]phenyl}-acetamide] | – | 227 to 229 | –
17 | CN(C)C(=O)c1cc(O)ccc1/C=C/c1ccc(O)cc1 [Example 12, 5-Hydroxy-2-[2-(4-hydroxyphenyl)vinyl]-N,N-dimethyl-benzamide] | increased | 183.5 to 187.7 | –
18 | Oc1ccc(CCc2ccc(O)cc2)cc1 [Example 17, 4-[4-Hydroxy-phenethyl]-phenol] | increased | – | ApoA-I Promoter Induction (human ApoA-I promoter [2]): increased
19 | O=S(=O)(Nc1ccc(O)cc1)c1ccc(O)cc1 [Example 19, 4-Hydroxy-N-(4-hydroxyphenyl)-benzenesulfonamide] | increased | – | –
20 | O=C(Oc1ccccn1)c1ccc(O)cc1 [Example 20, 4-Hydroxy-benzoic acid pyridin-2-yl ester] | – | – | Papp [3]: 2 ×10⁻⁶ cm/s
21 | Oc1ccc(/N=N/c2ccc(O)cc2)cc1 [Example 21, 4-(4-Hydroxy-phenyl)-azophenol] | – | – | Papp [3]: 8.73 ×10⁻⁶ cm/s
22 | CCCO [Propanol, reference compound] | – | – | % Transported Paap (Caco-2 cells): 10.1 ×10⁻⁶ cm/s
23 | Oc1ccc(/C=C/c2cc(O)cc(O)c2)cc1 [resveratrol] | – | – | stimulation of ApoA-I promoter activity at 4, 8, 16 and 24 hours following administration (human ApoA-I promoter [4]): significant stimulation
